Experimental data published in paper PMC5785997, “2-Phenylquinazolinones as dual-activity tankyrase-kinase inhibitors” (Scientific Reports, 2018).
Like-named read-outs stand apart in the source and are kept apart here.

Columns and labels:
Assay type in all cases: biochemical
TNKS2 = TNKS2 (Homo sapiens, UniProt Q9H2K2); assay: NAD+ quantification activity assay, TNKS2
Experimental: The activity assay used to measure the potency of the compounds against TNKS2 is based on the quantification of NAD^+[38]. The reactions were carried out in 96-well plate (Greiner bio-one, U-shaped) and the conditions were the same as reported earlier (Table S5)[24].
The compounds were stored in 100% DMSO at −20 °C. All the compounds were diluted in the TNKS2 assay buffer (50 mM Bis-Tris Propane, 0.5 mM TCEP, 0.01% Triton-100x). Control reactions were used to exclude the effect of compound fluorescence and quenching from the calculations. […] The pIC50 values were calculated and fitted with nonlinear regression using 4-parameters with GraphPad Prism (version 5.0 for windows).
Protein (nM) NAD+ (nM) Incubation Buffer
Kinase [ATP] Substrate Incubation Reaction buffer

p38α = p38α (Homo sapiens, UniProt Q16539); assay: Kinase functional assay (mobility shift), p38α; conditions: for p38 inhibition-%: Table 1; for inhibition at 1 µM / inhibition at 10 µM: read-out: p38α (% Inhib.)
GSK3β = GSK3β (Homo sapiens, UniProt P49841); assay: Kinase functional assay (mobility shift), GSK3β; conditions: for GSK3β inhibition-% / inhibition at 10 µM: 10 µM compound; for GSK3β inhibition-%: Table 1; for inhibition at 1 µM: 1 µM compound, Table S3; for inhibition at 1 µM / inhibition at 10 µM: read-out: GSK3β (% Inhib.); for inhibition at 10 µM: Table S4
Akt = assay: Kinase functional assay (mobility shift), Akt; conditions: for Akt inhibition-%: Table 1; for IC50: dose response
human CK2α-1 = biological target: T1, human CK2α-1 (Homo sapiens, UniProt P68400); assay: ADP-Glo kinase assay, CK2; conditions: for CK2 inhibition-% / inhibition at 10 µM: 10 µM compound; for CK2 inhibition-%: Table 1; for inhibition at 1 µM: 1 µM compound, Table S3; for inhibition at 1 µM / inhibition at 10 µM: read-out: CK2 (% Inhib.); for inhibition at 10 µM: Table S4
T1 construct: purchased Promega V4,482
Experimental: The kinase functional assays were performed using a combination of kinase and 1.5 μM peptide substrate in the presence of ATP. The reaction mixture was analyzed on the Caliper LabChip 3,000 (Caliper, Hopkinton, MA) by the electrophoretic mobility shift of the fluorescent substrate and phosphorylated product. For the inhibition of human CK2α-1, the experiments were carried out with ADP-Glo kinase Assay Kit (Promega V9,101). Assays are described in detail in the Supplementary Methods and Table S6. […]
Dose-response curves were generated to determine the concentration required to inhibit 50% of kinase activity (IC50). Staurosporine (Invitrogen BP2,451) was included as a positive control of each enzymatic assay. The profiling of the kinases was done at 1 and at 10 μM of the compound.
For the inhibition of human CK2α-1, the experiments were carried out in a white 384-microplate low flange (Corning 3,572) with ADP-Glo kinase Assay Kit (Promega V9101) and CK2α-1 Kinase Enzyme System (Promega V4,482). The test compounds and standard staurosporine (Invitrogen BP2451), 25 ng/well CK2α-1 kinase and 50 µM ATP were added in a final volume of 10 µl/well using reaction buffer supplied by kit as assay buffer. The reaction mixture was incubated in gentle shaking for 60 minutes at room temperature. After the incubation 10 µl of ADP-Glo reagent was added and incubated in gentle shaking for 40 minutes at room temperature. Finally 20 µl of Kinase Detection Reagent was added and the plate was incubated on a shaker for 30 minutes at room […]
temperature. […]

ERK2 = ERK2 (Homo sapiens, UniProt P28482); assay: Kinase functional assay (mobility shift), ERK2 (p42); conditions: for p42 inhibition-% / inhibition at 10 µM: 10 µM compound; for p42 inhibition-%: Table 1; for inhibition at 1 µM: 1 µM compound, Table S3; for inhibition at 1 µM / inhibition at 10 µM: read-out: ERK2 (% Inhib.); for inhibition at 10 µM: Table S4
CDK9 = CDK9 (Homo sapiens, UniProt P50750); assay: Kinase functional assay (mobility shift), CDK9; conditions: for CDK9 inhibition-% / inhibition at 10 µM: 10 µM compound; for CDK9 inhibition-%: Table 1; for inhibition at 1 µM: 1 µM compound, Table S3; for inhibition at 1 µM / inhibition at 10 µM: read-out: CDK9 (% Inhib.); for inhibition at 10 µM: Table S4
[1] = Table 1, read-out: TNKS2 IC50 (shown for comparison)
[2] = dose response, read-out: CDK9 IC50
[3] = compound does not completely inhibit the enzyme at concentrations used, IC50 extrapolated by the analysis software, read-out: CDK9 IC50 (extrapolated)

Sequence of GSK3β (P49841 whole entry, species assumed): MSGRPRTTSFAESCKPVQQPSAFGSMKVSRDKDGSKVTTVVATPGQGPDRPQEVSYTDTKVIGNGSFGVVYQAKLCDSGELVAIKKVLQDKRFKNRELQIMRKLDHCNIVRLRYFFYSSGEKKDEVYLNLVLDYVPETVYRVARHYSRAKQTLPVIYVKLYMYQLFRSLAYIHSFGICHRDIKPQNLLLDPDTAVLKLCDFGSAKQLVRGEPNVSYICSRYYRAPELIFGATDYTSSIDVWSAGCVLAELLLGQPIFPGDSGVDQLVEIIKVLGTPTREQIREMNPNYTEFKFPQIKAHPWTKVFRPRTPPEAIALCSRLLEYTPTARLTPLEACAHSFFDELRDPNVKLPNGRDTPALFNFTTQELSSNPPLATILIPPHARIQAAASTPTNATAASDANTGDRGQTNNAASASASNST
Sequence of TNKS2 (Q9H2K2 959-1164): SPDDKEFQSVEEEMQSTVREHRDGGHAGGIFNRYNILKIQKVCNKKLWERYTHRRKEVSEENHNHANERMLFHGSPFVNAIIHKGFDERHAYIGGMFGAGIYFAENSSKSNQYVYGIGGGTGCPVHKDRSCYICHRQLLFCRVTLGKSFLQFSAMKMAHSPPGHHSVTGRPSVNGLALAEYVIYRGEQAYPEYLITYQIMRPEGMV
T1 sequence (P68400 whole entry): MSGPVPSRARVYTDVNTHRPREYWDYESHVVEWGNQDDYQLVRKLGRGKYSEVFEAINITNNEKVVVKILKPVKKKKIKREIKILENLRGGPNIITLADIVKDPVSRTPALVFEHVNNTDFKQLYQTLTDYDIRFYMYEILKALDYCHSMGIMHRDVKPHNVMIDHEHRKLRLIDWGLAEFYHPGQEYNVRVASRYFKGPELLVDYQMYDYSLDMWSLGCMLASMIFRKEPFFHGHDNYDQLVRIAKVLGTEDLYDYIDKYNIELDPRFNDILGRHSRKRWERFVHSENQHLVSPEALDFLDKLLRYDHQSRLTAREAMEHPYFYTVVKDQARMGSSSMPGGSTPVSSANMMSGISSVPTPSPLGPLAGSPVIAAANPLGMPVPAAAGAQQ
Sequence of ERK2 (P28482 whole entry, species assumed): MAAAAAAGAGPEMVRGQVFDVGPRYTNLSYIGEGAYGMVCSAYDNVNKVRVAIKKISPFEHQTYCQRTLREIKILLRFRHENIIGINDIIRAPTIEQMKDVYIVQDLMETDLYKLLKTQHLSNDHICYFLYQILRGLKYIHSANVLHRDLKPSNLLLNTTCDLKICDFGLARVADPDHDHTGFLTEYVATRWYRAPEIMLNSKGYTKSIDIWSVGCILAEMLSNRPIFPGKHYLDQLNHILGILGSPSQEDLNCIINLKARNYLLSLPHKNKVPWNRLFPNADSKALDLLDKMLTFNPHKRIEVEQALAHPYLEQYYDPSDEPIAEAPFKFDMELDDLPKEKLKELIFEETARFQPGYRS
Sequence of CDK9 (P50750 whole entry, species assumed): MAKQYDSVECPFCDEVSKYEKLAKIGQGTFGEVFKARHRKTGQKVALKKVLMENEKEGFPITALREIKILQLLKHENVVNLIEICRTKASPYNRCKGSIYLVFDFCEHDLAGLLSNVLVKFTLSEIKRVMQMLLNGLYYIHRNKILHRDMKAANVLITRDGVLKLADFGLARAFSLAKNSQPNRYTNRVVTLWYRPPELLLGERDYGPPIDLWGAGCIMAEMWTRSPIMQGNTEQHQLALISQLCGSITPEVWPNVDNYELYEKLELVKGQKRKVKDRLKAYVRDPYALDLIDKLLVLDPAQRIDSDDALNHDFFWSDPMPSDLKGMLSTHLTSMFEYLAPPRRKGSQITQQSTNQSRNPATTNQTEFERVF
Sequence of CDK9 (O60563 whole entry partner, species assumed): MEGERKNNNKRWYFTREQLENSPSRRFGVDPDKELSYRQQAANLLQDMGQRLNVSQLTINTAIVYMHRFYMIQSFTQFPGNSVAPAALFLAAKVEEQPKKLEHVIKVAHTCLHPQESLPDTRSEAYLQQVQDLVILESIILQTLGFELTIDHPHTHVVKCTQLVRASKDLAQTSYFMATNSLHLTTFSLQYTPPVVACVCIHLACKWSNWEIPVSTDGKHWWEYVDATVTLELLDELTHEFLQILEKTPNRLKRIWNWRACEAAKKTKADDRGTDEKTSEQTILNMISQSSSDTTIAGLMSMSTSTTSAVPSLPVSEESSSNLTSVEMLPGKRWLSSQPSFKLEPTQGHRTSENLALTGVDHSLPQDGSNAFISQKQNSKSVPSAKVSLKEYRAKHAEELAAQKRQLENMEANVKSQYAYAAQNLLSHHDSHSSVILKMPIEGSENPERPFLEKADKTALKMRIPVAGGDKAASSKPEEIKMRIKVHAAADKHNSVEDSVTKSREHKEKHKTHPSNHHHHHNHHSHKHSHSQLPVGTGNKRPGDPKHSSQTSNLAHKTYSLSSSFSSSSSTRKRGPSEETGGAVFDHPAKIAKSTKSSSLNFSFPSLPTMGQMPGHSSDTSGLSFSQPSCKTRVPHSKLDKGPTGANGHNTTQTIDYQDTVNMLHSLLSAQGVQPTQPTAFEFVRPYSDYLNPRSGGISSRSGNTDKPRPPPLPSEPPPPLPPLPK
Sequence of p38α (Q16539 whole entry): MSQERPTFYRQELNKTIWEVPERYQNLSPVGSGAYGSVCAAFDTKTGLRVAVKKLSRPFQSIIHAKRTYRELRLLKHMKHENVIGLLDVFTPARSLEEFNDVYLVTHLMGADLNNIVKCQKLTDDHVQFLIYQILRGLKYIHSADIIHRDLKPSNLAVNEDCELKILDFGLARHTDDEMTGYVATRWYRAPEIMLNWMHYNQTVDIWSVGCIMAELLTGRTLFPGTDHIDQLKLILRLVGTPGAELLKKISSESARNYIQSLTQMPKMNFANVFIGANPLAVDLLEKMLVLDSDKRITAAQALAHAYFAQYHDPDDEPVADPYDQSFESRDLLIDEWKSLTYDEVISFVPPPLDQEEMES

SMILES: C[C@]1(c2ccc(-c3nc4ccccc4c(=O)[nH]3)cc2)NC(=O)NC1=O [(+)-8]
- IC50 (TNKS2; TNKS2 IC50, NAD+ 500 nM): 0.0067 µM

SMILES: O=c1[nH]c(-c2ccc3[nH]ncc3c2)nc2ccccc12 [C00001]
- p38 inhibition-% (p38α; 10 µM compound): 3%
- GSK3β inhibition-% (GSK3β): 57%
- Akt inhibition-% (Akt; 10 µM compound): 1%
- CK2 inhibition-% (human CK2α-1): 12%
- p42 inhibition-% (ERK2): 14%
- IC50 (TNKS2; [1]): 0.4 µM
- CDK9 inhibition-% (CDK9): 34%

SMILES: O=c1[nH]c(-c2ccc(N3CCCCC3)cc2)nc2ccccc12 [C00002]
- p38 inhibition-% (p38α; 10 µM compound): 3%
- GSK3β inhibition-% (GSK3β): 11%
- Akt inhibition-% (Akt; 10 µM compound): 2%
- CK2 inhibition-% (human CK2α-1): 1%
- p42 inhibition-% (ERK2): 3%
- IC50 (TNKS2; [1]): 0.015 µM
- CDK9 inhibition-% (CDK9): 31%

SMILES: CCN(CC)c1ccc(-c2nc3ccccc3c(=O)[nH]2)cc1 [C00003]
- p38 inhibition-% (p38α; 10 µM compound): 20%
- GSK3β inhibition-% (GSK3β): 4%
- Akt inhibition-% (Akt; 10 µM compound): 48%
- CK2 inhibition-% (human CK2α-1): 2%
- p42 inhibition-% (ERK2): 18%
- IC50 (TNKS2; [1]): 0.01 µM
- CDK9 inhibition-% (CDK9): 16%

SMILES: CN(CCO)c1ccc(-c2nc3cc(Cl)ccc3c(=O)[nH]2)cc1 [C00004]
- IC50 (TNKS2; [1]): 0.66 µM
- IC50 (CDK9; [2]): 6.2 µM

SMILES: CN(CCO)c1ccc(-c2nc3ccccc3c(=O)[nH]2)cc1 [C00005]
- IC50 (Akt): 13.3 µM
- IC50 (TNKS2; [1]): 0.016 µM
- IC50 (CDK9; [3]): 16.1 µM

SMILES: Nc1ccc(-c2nc3cc(Cl)ccc3c(=O)[nH]2)cc1 [C00006]
- p38 inhibition-% (p38α; 10 µM compound): 45%
- GSK3β inhibition-% (GSK3β): 41%
- CK2 inhibition-% (human CK2α-1): 2%
- p42 inhibition-% (ERK2): 51%
- IC50 (TNKS2; [1]): 1.05 µM
- IC50 (CDK9; [2]): 3.4 µM

SMILES: Nc1ccc(-c2nc3ccccc3c(=O)[nH]2)cc1 [C00007]
- IC50 (Akt): 13.8 µM
- IC50 (CDK9; [3]): 28.3 µM

SMILES: Oc1nc(-c2ccc(C(F)(F)F)cc2)nc2c1CSCC2 [Compound 1, XAV939, reference compound]
- inhibition at 1 µM (p38α): 2 ± 2%
- inhibition at 10 µM (p38α): 3 ± 2%
- inhibition at 1 µM (GSK3β): 1 ± 1%
- inhibition at 10 µM (GSK3β): 7 ± 1%
- AKT (% Inhib.) (Akt; 1 µM compound, Table S3): 1 ± 1%
- AKT (% Inhib.) (Akt; 10 µM compound, Table S4): 7 ± 4%
- inhibition at 1 µM (human CK2α-1): 2 ± 1%
- inhibition at 10 µM (human CK2α-1): 1 ± 1%
- inhibition at 1 µM (ERK2): 2 ± 2%
- inhibition at 10 µM (ERK2): 2 ± 1%
- inhibition at 1 µM (CDK9): 11 ± 3%
- inhibition at 10 µM (CDK9): 12 ± 1%

SMILES: O=c1[nH]c(-c2ccccn2)nc2ccccc12 [Compound 11]
- IC50 (TNKS2; TNKS2 IC50, as quoted in text): 2.4 µM

SMILES: Nc1ccccc1-c1nc2ccccc2c(=O)[nH]1 [Compound 14]
- IC50 (TNKS2; TNKS2 IC50, NAD+ 500 nM): 0.7 µM

SMILES: COc1ccccc1-c1nc(O)c2ccccc2n1 [Compound 18]
- IC50 (TNKS2; TNKS2 IC50, NAD+ 500 nM): 10 µM

SMILES: O=c1[nH]c(-c2cccc3cnccc23)nc2ccccc12 [Compound 19]
- IC50 (TNKS2; TNKS2 IC50, NAD+ 500 nM): 42.3 µM

SMILES: O=c1[nH]c(-c2ccc3[nH]ncc3c2)nc2ccccc12 [Compound 20]
- inhibition at 1 µM (p38α; 1 µM compound, Table S3): 1 ± 1%
- inhibition at 10 µM (p38α; 10 µM compound, Table S4): 3 ± 2%
- inhibition at 1 µM (GSK3β): 14 ± 1%
- inhibition at 10 µM (GSK3β): 57 ± 1%
- AKT (% Inhib.) (Akt; 1 µM compound, Table S3): 1 ± 1%
- AKT (% Inhib.) (Akt; 10 µM compound, Table S4): 1 ± 1%
- inhibition at 1 µM (human CK2α-1): 4 ± 3%
- inhibition at 10 µM (human CK2α-1): 12 ± 4%
- inhibition at 1 µM (ERK2): 3 ± 1%
- inhibition at 10 µM (ERK2): 14 ± 2%
- IC50 (TNKS2; TNKS2 IC50, NAD+ 500 nM): 0.4 µM
- inhibition at 1 µM (CDK9): 7 ± 4%
- inhibition at 10 µM (CDK9): 34 ± 4%

SMILES: O=c1[nH]c(-c2cnc[nH]2)nc2ccccc12 [Compound 21]
- IC50 (TNKS2; TNKS2 IC50, NAD+ 500 nM): 6.53 µM

SMILES: COCCN1CC(=O)C(c2nc3ccccc3c(=O)[nH]2)=C1N [Compound 22]
- IC50 (TNKS2; TNKS2 IC50, NAD+ 500 nM): 92 µM
